Test results as given in patent US12115167B2 (Woolsey Pharmaceuticals, Inc., priority 2022, dated 2024).
Counter-ions that a name gives are not always drawn.

Test: Stability of fasudil in 0.05M citrate buffer with and without EDTA, 60° C. for 36 days
Assay type: physicochemical
Settings: 60° C. 36 days, in words
Description: Samples were stored at 60° C. for 36 days.

Compound: O=S(=O)(c1cccc2cnccc12)N1CCCNCC1 [fasudil, hexahydro-1-(5-isoquinolinesulfonyl)-1H-1,4-diazepine monohydrochloride hemihydrate]
- compatibility with EDTA: compatible with EDTA in citrate buffer
